Measurements taken from the OPERA property sets (Mansouri et al. 2018).
≈ marks a conversion by molar mass, not a printed value. Where a SMILES comes first, the peptide text is derived from it.

CCC(C)(O)C(O)c1ccccc1 (configuration not stated)
solubility (20 °C): 18.9 mM (≈ 3400 µg/mL)

CCCC(=O)N(C)N=O
solubility (25 °C): 29.2 mM (≈ 3800 µg/mL)

O=C(O)COCC(=O)O
solubility (25 °C): 3110 mM (≈ 417000 µg/mL)

Cn1cnc2nc(Cl)nc(NN)c21
solubility: 72 mM (≈ 14300 µg/mL)

O=Cc1ccc(Br)o1
solubility (20 °C): 28.6 mM (≈ 5000 µg/mL)

CCc1nc2ncnc(O)c2nc1CC
solubility (20 °C): 12.2 mM (≈ 2500 µg/mL)

O=C(O)CC(SC(CC(=O)O)C(=O)O)C(=O)O (configuration not stated)
solubility (20 °C): 323 mM (≈ 86000 µg/mL)

CCCOC(=O)CCOC
solubility (25 °C): 219 mM (≈ 32000 µg/mL)

CC(C)CCOCC(O)COCCC(C)C
solubility: 43 mM (≈ 10000 µg/mL)

CN(C)c1nc2c[nH]cnc-2n1
solubility (20 °C): 40.9 mM (≈ 6670 µg/mL)

Oc1cc2ccccc2cc1C1=NCCN1
solubility (20 °C): 0.499 mM (≈ 106 µg/mL)

CNCCC(=O)O
solubility: 882 mM (≈ 91000 µg/mL)

N#CC1CCCC1=O (configuration not stated)
solubility: 440 mM (≈ 48000 µg/mL)

CCCCOP(=O)(OC)OCCCC
solubility (25 °C): 31.7 mM (≈ 7100 µg/mL)

OCc1ccc(Br)cc1
solubility (20 °C): 11.8 mM (≈ 2200 µg/mL)

CCCCCOC(=O)c1cccnc1
solubility (25 °C): 4.19 mM (≈ 810 µg/mL)

CCc1nc2cnc(O)nc2nc1CC
solubility (20 °C): 5.44 mM (≈ 1110 µg/mL)

CCCCCCCOC(=O)c1cccnc1
solubility (25 °C): 1.81 mM (≈ 400 µg/mL)

Cc1nc2c(=O)n(C)c(=O)n(C)c2nc1C
solubility (20 °C): 45.4 mM (≈ 10000 µg/mL)

C[C@H]1NC(=O)[C@@H](C)NC1=O
solubility: 703 mM (≈ 100000 µg/mL)

CC(Cl)C(C)(C)O (configuration not stated)
solubility (25 °C): 510 mM (≈ 62500 µg/mL)

Nc1ccc(S(=O)(=O)c2ccc(Cl)cc2)cc1
solubility (25 °C): 0.0747 mM (≈ 20 µg/mL)

C[Si](C)(C)CCCN
solubility (25 °C): 11.2 mM (≈ 1470 µg/mL)

CN(C)C1CCC=CCCC1 (configuration not stated)
solubility: 25.1 mM (≈ 3850 µg/mL)

c1ccc(-c2cccnc2)nc1
solubility (25 °C): 256 mM (≈ 40000 µg/mL)

O=C(O)c1ccc2ccccc2n1
solubility (25 °C): 81.1 mM (≈ 14000 µg/mL)

N#CCCN(CCC#N)C(CC(=O)O)C(=O)O (racemic)
solubility (25 °C): 29.3 mM (≈ 7000 µg/mL)

NN=c1nc[nH]c2nccnc12
solubility (20 °C): 13.7 mM (≈ 2220 µg/mL)

CN(C)CCCCl
solubility: 633 mM (≈ 77000 µg/mL)

Cn1cnc2nc(Cl)nc(Cl)c21
solubility: 70.4 mM (≈ 14300 µg/mL)

CC(=O)OCCS
solubility (22 °C): 31.6 mM (≈ 3800 µg/mL)

Cc1cc(Cl)c(O)c(Cl)c1
solubility (25 °C): 38 mM (≈ 6730 µg/mL)

Cn1c(C(N)=O)c(C(N)=O)c2ccccc21
solubility: 15.2 mM (≈ 3300 µg/mL)

COC(/C=C/C(OC)OC)OC
solubility: 1140 mM (≈ 200000 µg/mL)

Cc1ccc(C(=O)O)o1
solubility (20 °C): 150 mM (≈ 18900 µg/mL)

O=S(=O)(O)c1cnc[nH]1
solubility: 1350 mM (≈ 200000 µg/mL)

CC(C(=O)O)C(C)(C)CCC(=O)O (configuration not stated)
solubility (26 °C): 29.8 mM (≈ 5600 µg/mL)

O=C(O)CCP(=O)(O)O
solubility (20 °C): 3170 mM (≈ 488000 µg/mL)

CCCC(Br)(CCC)C(N)=O
solubility: 14.9 mM (≈ 3300 µg/mL)

O=C(O)c1ccccc1CO
solubility (20 °C): 28.1 mM (≈ 4280 µg/mL)

CC(C)C1(Br)C(=O)NC(=O)NC1=O
solubility (20 °C): 6.18 mM (≈ 1540 µg/mL)

CC=C(CCCC)C(=O)NC(N)=O
solubility (20 °C): 1.63 mM (≈ 300 µg/mL)

CC1=C(C(=O)O)CCC1(C)C
solubility (25 °C): 1.3 mM (≈ 200 µg/mL)

O=c1nccc[nH]1
solubility (20 °C): 4730 mM (≈ 455000 µg/mL)

O=S1(=O)NCc2ccccc21
solubility (22 °C): 30.1 mM (≈ 5100 µg/mL)

COc1ncnc2nccnc12
solubility (20 °C): 77.1 mM (≈ 12500 µg/mL)

C=CCCCN=C=S
solubility (20 °C): 1.26 mM (≈ 160 µg/mL)

CC1NC(=O)CNC1=O (configuration not stated)
solubility: 1950 mM (≈ 250000 µg/mL)

O=C(O)CCCCc1ccccc1
solubility (25 °C): 3.42 mM (≈ 610 µg/mL)

O=C1CC=CS1
solubility (25 °C): 599 mM (≈ 60000 µg/mL)

CCCCCCCCCCCCCCCCNC(=O)C(C)O (configuration not stated)
solubility (25 °C): 0.223 mM (≈ 70 µg/mL)

CC(C)C[C@H](N)C(=O)N[C@@H](CCC(=O)O)C(=O)O (H-Leu-Glu-OH)
solubility (25 °C): 127 mM (≈ 33000 µg/mL)

Cc1cc(C)nc(C(N)=O)n1
solubility (20 °C): 1320 mM (≈ 200000 µg/mL)

O=C(O)c1ccccc1C(=O)c1ccc(O)cc1
solubility (21 °C): 2.61 mM (≈ 632 µg/mL)

NC(=S)NCNC(N)=S
solubility (21 °C): 21.3 mM (≈ 3500 µg/mL)

O=CC(=O)Cc1ccccc1
solubility (20 °C): 6.75 mM (≈ 1000 µg/mL)

CCOC(=S)SC(CC(=O)O)C(=O)O (configuration not stated)
solubility (25 °C): 101 mM (≈ 24100 µg/mL)

Oc1c(Cl)cc(Cl)cc1Cc1ccccc1
solubility (25 °C): 0.0229 mM (≈ 5.8 µg/mL)

O=C1C=Cc2ccccc2C1=NO
solubility (20 °C): 1.16 mM (≈ 200 µg/mL)

CCOC(=O)N1CCN(C(=O)OCC)CC1
solubility (25 °C): 187 mM (≈ 43000 µg/mL)

C=CCc1ccc(OCC(=O)O)c(OC)c1
solubility: 5.27 mM (≈ 1170 µg/mL)

COC(=O)c1cc([N+](=O)[O-])ccc1C(=O)O
solubility (20 °C): 19 mM (≈ 4280 µg/mL)

Cc1cnnc2c(O)cccc12
solubility (20 °C): 2.1 mM (≈ 336 µg/mL)

C[C@H](O)C(F)(F)F
solubility (25 °C): 2040 mM (≈ 233000 µg/mL)

NC(N)=N/C(N)=N/c1ccc2ccccc2c1
solubility (21 °C): 2.82 mM (≈ 641 µg/mL)

Oc1ccc(Sc2ccccc2)cc1
solubility: 1.68 mM (≈ 340 µg/mL)

CSC1=CC(=O)c2ccccc2C1=O
solubility (26 °C): 0.0343 mM (≈ 7 µg/mL)

NC(=O)NCCC(=O)O
solubility (25 °C): 158 mM (≈ 20900 µg/mL)

CCC1(c2ccccc2)NC(=O)NC1=O (configuration not stated)
solubility (25 °C): 6.76 mM (≈ 1380 µg/mL)

CC(C)[C@H](NC(=O)CN)C(=O)O (H-Gly-Val-OH)
solubility: 2870 mM (≈ 500000 µg/mL)

COCCCl
solubility (25 °C): 846 mM (≈ 80000 µg/mL)

CC=C(CCCC)C(N)=O
solubility (20 °C): 42.5 mM (≈ 6000 µg/mL)

Cc1ccc(N)cc1C
solubility (22 °C): 31.4 mM (≈ 3800 µg/mL)

O=C(O)C=CCCC(=O)O
solubility: 62.4 mM (≈ 9000 µg/mL)

Cc1cc(O)c(C(=O)O)cc1Cl
solubility (21 °C): 0.75 mM (≈ 140 µg/mL)

CCCCCCCCCCCCNC(=O)c1cccnc1
solubility (25 °C): 0.62 mM (≈ 180 µg/mL)

O=C(O)c1ccc(NC(=O)c2cccnc2)cc1
solubility (25 °C): 0.826 mM (≈ 200 µg/mL)

O=S(CCCl)CCCl
solubility (20 °C): 68.5 mM (≈ 12000 µg/mL)

Cc1nn(-c2ccccc2)c(N)c1C
solubility: 21.4 mM (≈ 4000 µg/mL)

ON=C1CCCCCC1=NO
solubility (25 °C): 37.6 mM (≈ 5870 µg/mL)

CCOC(=O)c1ccccc1C(=O)c1ccccc1
solubility (20 °C): 0.393 mM (≈ 100 µg/mL)

COP(=S)(OC)SSP(=S)(OC)OC
solubility (25 °C): 0.04 mM (≈ 12.6 µg/mL)

Cc1cc(C)nc(N)n1
solubility (25 °C): 325 mM (≈ 40000 µg/mL)

O=C(O)CC[Se][Se]CCC(=O)O
solubility (25 °C): 5.39 mM (≈ 1640 µg/mL)

CSCCC(NC(C)=O)C(=O)O (racemic)
solubility (25 °C): 1070 mM (≈ 205000 µg/mL)

O=C(O)CCCCCc1ccccc1
solubility (30 °C): 2.5 mM (≈ 480 µg/mL)

CC(=O)Nc1ccc(C)cc1F
solubility (20 °C): 18.2 mM (≈ 3040 µg/mL)

NNC(=O)CC(=O)NN
solubility (25 °C): 757 mM (≈ 100000 µg/mL)

CCc1cc(C)cc(O)c1
solubility (25 °C): 17 mM (≈ 2320 µg/mL)

CC1OC(=O)c2cc(N)ccc21 (configuration not stated)
solubility (25 °C): 16.3 mM (≈ 2650 µg/mL)

O=C(NC(=O)c1cccnc1)Nc1ccccc1
solubility (25 °C): 0.414 mM (≈ 100 µg/mL)

CCCCCCOC(=O)CCOCC
solubility (25 °C): 1.48 mM (≈ 300 µg/mL)

CCC(C(=O)O)C(CC)C(=O)O (configuration not stated)
solubility (23 °C): 69.5 mM (≈ 12100 µg/mL)

CC(C)[C@@H](O)C#N
solubility (25 °C): 2020 mM (≈ 200000 µg/mL)

CC(C)c1nnc(NS(=O)(=O)c2ccc(N)cc2)s1
solubility (20 °C): 0.385 mM (≈ 115 µg/mL)

O=C(NC1CCCCC1)c1cccnc1
solubility (25 °C): 4.8 mM (≈ 980 µg/mL)

COCOC(=O)c1ccccc1O
solubility (22 °C): 5.01 mM (≈ 913 µg/mL)

O=C(O)c1ccc(Cl)o1
solubility (20 °C): 19.1 mM (≈ 2800 µg/mL)

Oc1ccc2c(c1)Sc1ccccc1N2
solubility (20 °C): 2.66 mM (≈ 573 µg/mL)

CCCCCCP(=O)(OCC)OCC
solubility (25 °C): 2.7 mM (≈ 600 µg/mL)

C[C@](N)(C(=O)O)c1ccccc1
solubility (22 °C): 291 mM (≈ 48000 µg/mL)

OCc1ccc(Cl)cc1Cl
solubility (20 °C): 5.65 mM (≈ 1000 µg/mL)

CC(C)CC(=O)Oc1ccc([N+](=O)[O-])cc1
solubility (25 °C): 0.0403 mM (≈ 9 µg/mL)

NC(=O)NCO
solubility (28 °C): 451 mM (≈ 40600 µg/mL)

O=C(O)COc1ccc([N+](=O)[O-])cc1[N+](=O)[O-]
solubility (21 °C): 11.6 mM (≈ 2800 µg/mL)

O=C1OCc2ccc(Br)cc21
solubility (25 °C): 2.25 mM (≈ 480 µg/mL)

O=C(O)c1occ(Br)c1Br
solubility (20 °C): 8.15 mM (≈ 2200 µg/mL)

N#CI
solubility (25 °C): 233 mM (≈ 35600 µg/mL)

CCCCCCOC(=O)c1ccc(O)cc1
solubility (30 °C): 0.112 mM (≈ 25 µg/mL)

NC(CS(=O)(=O)c1ccc(Cl)cc1)C(=O)O (configuration not stated)
solubility: 2.93 mM (≈ 774 µg/mL)

CCOCC(N)C(=O)O (configuration not stated)
solubility (20 °C): 3340 mM (≈ 445000 µg/mL)

CCC(CC)(C(=O)O)C(CC)(CC)C(=O)O
solubility (25 °C): 1.09 mM (≈ 250 µg/mL)

Nc1ncnc2c1ncn2[C@@H]1O[C@H](COP(=O)(O)O)[C@@H](O)[C@H]1O
solubility (20 °C): 28.8 mM (≈ 10000 µg/mL)

O=C(O)C(S)CCC(S)C(=O)O (configuration not stated)
solubility (25 °C): 3.34 mM (≈ 703 µg/mL)

NNc1cccc(S(=O)(=O)O)c1
solubility (22 °C): 149 mM (≈ 28000 µg/mL)

CCCCCCCCOC(=O)C(C)O (configuration not stated)
solubility (25 °C): 53.4 mM (≈ 10800 µg/mL)

CCCOC(=O)C(C)(C)O
solubility: 684 mM (≈ 100000 µg/mL)
